This is an account of results in US7902361B2, “Pyrimidin-4-yl-3, 4-thione compounds and their use in therapy” (Cyclacel Limited, priority 2003, dated 2011).

The target of one data set is CDK1/cyclin B (Homo sapiens, UniProt P06493). The experiment in a line: Kinase assay CDK1/cyclin B (radioactive phosphate incorporation). Type of data set: biochemical. Conditions: Ki calculated (Cheng-Prusoff) from experimentally determined IC50 and Km,ATP; read-out: Kinase Inhibition Ki CDK1 - cyclin B. The gist of the method: (§1)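 Radiometric assays measured transfer of radioactive phosphate from ATP onto polypeptide substrates, using 2-4 μg recombinant active enzyme in buffer typically containing 25 mM β-glycerophosphate, 20 mM MOPS, 5 mM EGTA, 1 mM DTT and 1 mM Na3VO3 at pH 7.4. Reactions were stopped on ice, filtered on P81 or GF/C plates and washed with orthophosphoric acid. Incorporated radioactivity was scintillation-counted.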

A further data set deals with CDK9/cyclin T1 (Homo sapiens, UniProt P50750). Kind of data set: Kinase assay CDK9/cyclin T1. Type of data set: biochemical. Conditions: Ki calculated (Cheng-Prusoff) from experimentally determined IC50 and Km,ATP; read-out: Kinase Inhibition Ki CDK9 - cyclin T1. The gist of the method:
(§2)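 Radiometric filter assays used recombinant kinases or complexes (2-4 μg) with appropriate polypeptide substrates in pH 7.4 β-glycerophosphate/MOPS buffer. Reactions were started with 15 mM MgCl2 and 100 μM ATP containing [γ-32P]-ATP and run at 30° C. Phosphate incorporated into substrate was counted by scintillation after washing.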

The target of a further data set is CDK2/cyclin E (Homo sapiens, UniProt P24941). The experiment in a line: Kinase assay CDK2/cyclin E. The following applies: Ki calculated (Cheng-Prusoff) from experimentally determined IC50 and Km,ATP; read-out: Kinase Inhibition Ki CDK2 - cyclin E. Type of data set: biochemical. The method in brief: as §1
A further data set deals with CDK2/cyclin A (Homo sapiens, UniProt P24941). The experiment in a line: Kinase assay CDK2/cyclin A. Conditions: Ki calculated (Cheng-Prusoff) from experimentally determined IC50 and Km,ATP; read-out: Kinase Inhibition Ki CDK2 - cyclin A. Type of data set: biochemical. The gist of the method:
as §1

A further data set addresses CDK7/cyclin H (Homo sapiens, UniProt P50613). Kind of data set: Kinase assay CDK7/cyclin H. Conditions: Ki calculated (Cheng-Prusoff) from experimentally determined IC50 and Km,ATP; read-out: Kinase Inhibition Ki CDK7 - cyclin H. Type of data set: biochemical. The method in brief:
as §2

The next data set concerns the target T1, GSK3β (Homo sapiens, UniProt P49841).
T1 construct: purchased New England Biolabs
The experiment in a line: GSK3β in vitro kinase assay. Conditions: recombinant human GSK3β, 100 μM ATP. Type of data set: biochemical. As for the experimental part:
Both isoforms of GSK3 (α and β) are involved in the regulation of glycogen synthase activity—key enzyme in the glycogen metabolism.
A 10-point titration was set up to determine the IC50 values of selected example compounds against GSK3β. Assays were performed using 96-well microtiter plates with a final volume of 25 μL per well. Each assay contained 1.5 units of GSK3β(New England Biolabs), 200 μM CREB phosphopeptide ([…]pSYR, Alta Biosciences), 20 mM Tris HCl pH7.5, 5 mM DTT, 15 mM MgCl2 supplemented with 100 μM ATP and 0.5 μCi of [γ-^32P] ATP plus or minus inhibitor in 2% DMSO. Assays were carried out for 30 minutes at 30° C. before stopping the reaction by the addition of an equal volume of 75 mM aqueous phosphoric acid. Samples were then spotted onto a p81 filterplate (Whatman) and a vacuum was applied. Wells were washed 3 times with 200 μL of dilute aqueous phosphoric acid before the addition of 50 μL Microscint 40 per well. Incorporation of radioactivity was determined on a Topcount microplate scintillation counter (Packard).

For a further data set, the target named is T2, aurora A (Homo sapiens, UniProt O14965).
T2 sequence (O14965 1-403): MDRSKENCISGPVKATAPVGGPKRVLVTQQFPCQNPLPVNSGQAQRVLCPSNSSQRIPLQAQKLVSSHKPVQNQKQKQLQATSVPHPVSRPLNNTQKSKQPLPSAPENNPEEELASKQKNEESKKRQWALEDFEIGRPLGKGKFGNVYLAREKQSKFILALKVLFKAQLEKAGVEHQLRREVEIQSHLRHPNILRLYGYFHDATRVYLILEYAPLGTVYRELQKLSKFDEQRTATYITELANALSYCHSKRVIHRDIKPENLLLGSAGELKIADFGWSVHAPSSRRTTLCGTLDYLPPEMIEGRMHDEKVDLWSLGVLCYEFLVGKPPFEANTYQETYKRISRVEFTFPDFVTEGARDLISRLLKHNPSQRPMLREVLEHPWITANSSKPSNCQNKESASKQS
The experiment in a line: Kinase assay aurora A. Conditions: Ki calculated (Cheng-Prusoff) from experimentally determined IC50 and Km,ATP; read-out: Kinase Inhibition Ki Aurora A. Type of data set: biochemical. The procedure: The compounds from the examples above were investigated for their ability to inhibit the enzymatic activity of various protein kinases. This was achieved by measurement of incorporation of radioactive phosphate from ATP into appropriate polypeptide substrates. Recombinant protein kinases and kinase complexes were produced or obtained commercially. Assays were performed using 96-well plates and appropriate assay buffers (typically 25 mM β-glycerophosphate, 20 mM MOPS, 5 mM EGTA, 1 mM DTT, 1 mM […], pH 7.4), into which were added 2-4 μg of active enzyme with appropriate substrates. […] Reactions were stopped on ice, followed by filtration through p81 filterplates or GF/C filterplates (Whatman Polyfiltronics, Kent, UK). After washing 3 times with 75 mM aq orthophosphoric acid, plates were dried, scintillant added and incorporated radioactivity measured in a scintillation counter (TopCount, Packard Instruments, Pangbourne, Berks, UK). Compounds for kinase assay were made up as 10 mM stocks in DMSO and diluted into 10% DMSO in assay buffer.

The target of a further data set is CDK4/cyclin D1 (Homo sapiens, UniProt P11802). Kind of data set: Kinase assay CDK4/cyclin D1. The following applies: Ki calculated (Cheng-Prusoff) from experimentally determined IC50 and Km,ATP; read-out: Kinase Inhibition Ki CDK4 - cyclin D1. Type of data set: biochemical. The method in brief:
as §2

In another data set the test system is HIV-1. Conditions: HIV-1 in human PBMCs, seven days following infection.

T1 sequence (P49841 whole entry): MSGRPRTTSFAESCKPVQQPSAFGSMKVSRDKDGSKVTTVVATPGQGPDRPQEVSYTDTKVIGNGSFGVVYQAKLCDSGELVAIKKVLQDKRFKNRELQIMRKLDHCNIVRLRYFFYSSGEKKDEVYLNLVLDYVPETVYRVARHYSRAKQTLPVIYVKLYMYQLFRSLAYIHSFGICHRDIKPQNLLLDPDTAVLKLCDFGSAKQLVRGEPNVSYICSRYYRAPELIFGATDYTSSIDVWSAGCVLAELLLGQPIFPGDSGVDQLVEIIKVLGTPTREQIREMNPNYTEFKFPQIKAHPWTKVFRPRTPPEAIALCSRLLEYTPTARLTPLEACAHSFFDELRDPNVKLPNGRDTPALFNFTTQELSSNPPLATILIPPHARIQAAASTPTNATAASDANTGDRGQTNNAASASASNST
Sequence of CDK4/cyclin D1 (P11802 whole entry, species assumed): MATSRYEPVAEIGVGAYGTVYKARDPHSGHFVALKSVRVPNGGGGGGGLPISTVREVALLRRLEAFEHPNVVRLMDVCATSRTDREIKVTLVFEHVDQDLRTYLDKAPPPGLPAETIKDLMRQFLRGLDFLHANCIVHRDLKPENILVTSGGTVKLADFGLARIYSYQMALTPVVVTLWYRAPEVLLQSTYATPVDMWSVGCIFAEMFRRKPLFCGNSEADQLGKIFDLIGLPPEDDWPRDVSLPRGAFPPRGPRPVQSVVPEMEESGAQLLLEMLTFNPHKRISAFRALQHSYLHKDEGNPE
Sequence of CDK4/cyclin D1 (P24385 whole entry partner, species assumed): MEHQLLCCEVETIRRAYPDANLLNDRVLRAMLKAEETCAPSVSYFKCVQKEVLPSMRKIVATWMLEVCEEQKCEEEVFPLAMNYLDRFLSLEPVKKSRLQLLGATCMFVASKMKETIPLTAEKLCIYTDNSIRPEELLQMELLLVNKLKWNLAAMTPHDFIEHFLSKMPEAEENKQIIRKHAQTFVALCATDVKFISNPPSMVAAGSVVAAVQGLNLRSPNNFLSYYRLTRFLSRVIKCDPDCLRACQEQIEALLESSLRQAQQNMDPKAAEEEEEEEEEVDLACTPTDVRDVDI
Sequence of CDK9/cyclin T1 (P50750 whole entry, species assumed): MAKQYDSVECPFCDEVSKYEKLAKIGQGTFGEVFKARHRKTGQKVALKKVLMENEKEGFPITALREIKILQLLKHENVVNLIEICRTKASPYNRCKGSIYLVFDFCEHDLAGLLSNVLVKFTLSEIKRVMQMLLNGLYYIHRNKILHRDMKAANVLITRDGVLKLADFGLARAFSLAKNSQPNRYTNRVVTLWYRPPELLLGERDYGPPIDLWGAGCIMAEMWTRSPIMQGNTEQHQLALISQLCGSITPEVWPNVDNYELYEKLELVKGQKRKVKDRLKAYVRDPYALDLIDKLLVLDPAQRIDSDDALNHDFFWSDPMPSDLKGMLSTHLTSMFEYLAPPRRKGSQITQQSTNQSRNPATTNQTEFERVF
Sequence of CDK9/cyclin T1 (O60563 whole entry partner, species assumed): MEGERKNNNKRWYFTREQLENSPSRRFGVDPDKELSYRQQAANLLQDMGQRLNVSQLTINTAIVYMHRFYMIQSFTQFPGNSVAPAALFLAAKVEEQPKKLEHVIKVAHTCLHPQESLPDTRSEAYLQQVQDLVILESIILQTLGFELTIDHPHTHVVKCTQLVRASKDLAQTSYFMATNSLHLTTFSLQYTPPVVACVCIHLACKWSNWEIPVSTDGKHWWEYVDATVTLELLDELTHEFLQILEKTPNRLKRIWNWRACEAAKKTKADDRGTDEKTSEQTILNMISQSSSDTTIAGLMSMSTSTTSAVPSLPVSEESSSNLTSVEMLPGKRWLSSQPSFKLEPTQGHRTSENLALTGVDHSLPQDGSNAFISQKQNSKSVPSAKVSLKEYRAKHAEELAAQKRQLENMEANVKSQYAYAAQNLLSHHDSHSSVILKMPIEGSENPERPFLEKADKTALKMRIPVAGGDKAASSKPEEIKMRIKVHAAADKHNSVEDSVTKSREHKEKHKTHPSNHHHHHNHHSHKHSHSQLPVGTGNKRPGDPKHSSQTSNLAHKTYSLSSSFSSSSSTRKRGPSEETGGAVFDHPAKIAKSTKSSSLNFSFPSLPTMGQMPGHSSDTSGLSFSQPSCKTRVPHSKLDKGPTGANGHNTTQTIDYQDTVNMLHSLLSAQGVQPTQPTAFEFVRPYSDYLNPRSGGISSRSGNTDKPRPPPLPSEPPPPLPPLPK
Sequence of CDK1/cyclin B (P06493 whole entry, species assumed): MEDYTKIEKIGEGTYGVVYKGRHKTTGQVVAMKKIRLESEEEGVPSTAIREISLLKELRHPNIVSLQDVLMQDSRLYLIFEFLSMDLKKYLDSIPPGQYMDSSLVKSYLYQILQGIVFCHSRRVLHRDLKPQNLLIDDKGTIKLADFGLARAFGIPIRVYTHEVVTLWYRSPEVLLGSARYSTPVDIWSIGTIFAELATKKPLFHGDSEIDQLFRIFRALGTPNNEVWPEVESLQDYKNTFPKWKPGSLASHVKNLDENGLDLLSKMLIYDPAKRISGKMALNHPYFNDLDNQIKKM
Sequence of CDK1/cyclin B (P14635 whole entry partner, species assumed): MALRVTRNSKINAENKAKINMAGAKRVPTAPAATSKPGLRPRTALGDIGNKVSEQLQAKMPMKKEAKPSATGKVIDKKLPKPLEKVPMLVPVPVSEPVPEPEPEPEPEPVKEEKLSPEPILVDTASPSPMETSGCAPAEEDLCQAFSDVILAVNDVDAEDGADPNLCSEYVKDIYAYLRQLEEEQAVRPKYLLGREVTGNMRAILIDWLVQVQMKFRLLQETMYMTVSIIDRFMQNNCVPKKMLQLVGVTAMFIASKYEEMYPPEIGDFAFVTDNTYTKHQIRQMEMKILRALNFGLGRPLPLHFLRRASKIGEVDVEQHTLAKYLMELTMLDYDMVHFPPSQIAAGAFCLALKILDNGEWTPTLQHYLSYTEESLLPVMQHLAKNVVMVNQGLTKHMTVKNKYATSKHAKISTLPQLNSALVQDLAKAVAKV
Sequence of CDK7/cyclin H (P50613 whole entry, species assumed): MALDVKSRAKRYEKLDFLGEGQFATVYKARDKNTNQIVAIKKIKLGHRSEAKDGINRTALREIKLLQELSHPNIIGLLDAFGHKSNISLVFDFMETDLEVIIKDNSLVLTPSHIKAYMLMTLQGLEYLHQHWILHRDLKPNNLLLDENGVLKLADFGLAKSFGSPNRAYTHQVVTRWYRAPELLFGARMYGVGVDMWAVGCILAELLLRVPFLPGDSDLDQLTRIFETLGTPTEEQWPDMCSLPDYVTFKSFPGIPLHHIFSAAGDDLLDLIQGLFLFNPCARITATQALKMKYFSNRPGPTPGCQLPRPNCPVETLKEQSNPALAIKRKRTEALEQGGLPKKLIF
Sequence of CDK7/cyclin H (P51946 whole entry partner, species assumed): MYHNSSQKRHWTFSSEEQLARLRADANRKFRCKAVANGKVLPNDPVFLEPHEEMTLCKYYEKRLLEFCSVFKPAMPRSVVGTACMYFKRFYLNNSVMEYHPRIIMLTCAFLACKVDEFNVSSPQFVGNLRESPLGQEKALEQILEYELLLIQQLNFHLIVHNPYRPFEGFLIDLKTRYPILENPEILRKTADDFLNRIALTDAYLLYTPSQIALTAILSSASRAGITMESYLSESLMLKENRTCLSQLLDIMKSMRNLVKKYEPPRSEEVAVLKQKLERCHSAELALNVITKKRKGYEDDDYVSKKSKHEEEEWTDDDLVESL
Method for HIV-1: Representative compounds of the present invention were tested for antiviral activity against HIV-1 in human peripheral blood mononuclear cells (PBMCs) using the clinical paediatric HIV strains RoJo or WeJo. PBMCs were cultured under conditions which promote cell survival and HIV replication.
Fresh PBMCs, seronegative for HIV and HBV, were isolated from screened donors (Interstate Blood Bank, Inc. Memphis, Tenn.). Cells were pelleted/washed 2-3 times by low speed centrifugation and re-suspension in PBS to remove contaminating platelets. […] Banded PBMCs were gently aspirated from the resulting interface and subsequently washed with PBS by low speed centrifugation. […] The cells were allowed to incubate at 37° C. […] IL-2 is included in the culture medium to maintain the cell division initiated by the PHA mitogenic stimulation. PBMCs were maintained in this with bi-weekly medium changes until used in the assay protocol. Cells were kept in culture for a maximum of two weeks before being deemed too old for use in assays and discarded. Monocytes were depleted from the culture as the result of adherence to the tissue culture flask.
For the standard PBMC assay, PHA-P stimulated cells from at least two normal donors were pooled, diluted and plated in the interior wells of a 96-well round bottom microplate. Pooling of mononuclear cells from more than one donor was used to minimise the variability observed between individual donors, which results from quantitative and qualitative differences in HIV infection and overall response to the PHA and IL-2 of primary lymphocyte populations. Each plate contained virus/cell control wells (cells plus virus), experimental wells (drug plus cells plus virus) and compound control wells (drug plus media without cells, necessary for MTS monitoring of cytotoxicity). Since HIV-1 is not cytopathic to PBMCs, this allows the use of the same assay plate for both antiviral activity and cytotoxicity measurements. Test drug dilutions were prepared in microtiter tubes and each concentration was placed in appropriate wells using the standard format. A predetermined dilution of virus stock was placed in each test well (final MOI≅0.1). The PBMC cultures were maintained for seven days following infection at 37° C., 5% CO2 After this period, cell-free supernatant samples were collected for analysis of reverse transcriptase activity and/or HIV p24 content. Following removal of supernatant samples, compound cytotoxicity was measured by addition of MTS to the plates for determination of cell viability. Wells were also examined microscopically and any abnormalities were noted.
Tritiated thymidine triphosphate (^3H-TTP, 80 Ci/mmol, NEN) was received in 1:1 dH2O:Ethanol at 1 mCi/mL. Poly rA:oligo dT template:primer (Pharmacia) was prepared as a stock solution, followed by aliquoting and storage at −20° C. The RT reaction buffer was prepared fresh on a daily basis. The final reaction mixture was prepared by combining ^3H-TTP, dH2O, poly rA:oligo dT stock and reaction buffer. This reaction mixture was placed in a round bottom microtiter plate and supernatant containing virus was added and mixed. The plate was incubated at 37° C. for 60 minutes. Following incubation, the reaction volume was spotted onto DE81 filter-mats (Wallac), in a sodium phosphate buffer or 2×SSC (Life Technologies). Next they were washed in distilled water, in 70% ethanol, and then dried. Incorporated radioactivity (counts per minute, CPM) was quantified using standard liquid scintillation techniques.

A word on the Ki: it is a dissociation constant, usually derived from enzyme kinetics or from competition with a known ligand. A word on the IC50: it is the concentration that gives 50% inhibition. On to `Cc1c(-c2ccnc(Nc3cccc(CNC(=O)c4ccccc4)c3)n2)sc(=O)n1C` [Compound 57, N-{3-[4-(3,4-Dimethyl-2-oxo-2,3-dihydro-thiazol-5-yl)-pyrimidin-2-ylamino]-benzyl}-benzamide], for which the Ki is 360 nM on CDK1/cyclin B; 1.6 nM on CDK9/cyclin T1; 52 nM at CDK2/cyclin E; 540 nM on CDK2/cyclin A; 1300 nM at CDK7/cyclin H; 160 nM on aurora A. Besides, the Ki at CDK4/cyclin D1 was 21 nM. Further, at GSK3β, the half-maximal inhibitory concentration (IC50) stood at 17.8 nM.

With `Cc1c(-c2ccnc(Nc3cccc(CNS(C)(=O)=O)c3)n2)sc(=O)n1C` [Compound 55, N-{3-[4-(3,4-Dimethyl-2-oxo-2,3-dihydro-thiazol-5-yl)-pyrimidin-2-ylamino]-benzyl}-methane-sulfonamide], the Ki was 160 nM on CDK1/cyclin B; 2.2 nM on CDK9/cyclin T1; 39 nM on CDK2/cyclin E; 42 nM on CDK2/cyclin A; 110 nM at CDK7/cyclin H; 46 nM at aurora A. Moreover, the Ki at CDK4/cyclin D1 is 110 nM. In addition, on GSK3β, the IC50 came out at 82 nM.

In the case of `CCn1c(C)c(-c2ccnc(Nc3ccc(C)c(O)c3)n2)sc1=O` [Compound 47, 3-Ethyl-5-[2-(3-hydroxy-4-methyl-phenylamino)-pyrimidin-4-yl]-4-methyl-3H-thiazol-2-one], the Ki on CDK1/cyclin B is 180 nM; on CDK9/cyclin T1 it was 3 nM; on CDK2/cyclin E it was 15 nM; on CDK2/cyclin A, 87 nM; at CDK7/cyclin H, 17 nM; at aurora A, 53 nM. For the same molecule, at CDK4/cyclin D1, the Ki is 1800 nM. Moreover, the IC50 on GSK3β is 30.8 nM.

For the molecule `Cc1ccc(Nc2nccc(-c3sc(=O)n(C)c3C)n2)cc1[N+](=O)[O-]` [Compound 11, 3,4-Dimethyl-5-[2-(4-methyl-3-nitro-phenylamino)-pyrimidin-4-yl]-3H-thiazol-2-one], the “anti-HIV activity based on TI (therapeutic index: TC50/IC50)” value with HIV-1 was “Active”. The Ki was 720 nM at CDK1/cyclin B; 0.4 nM at CDK9/cyclin T1; 61 nM at CDK2/cyclin E; 220 nM at CDK2/cyclin A; 36 nM at CDK7/cyclin H; 380 nM on CDK4/cyclin D1.

Regarding `Cc1c(-c2ccnc(Nc3ccc(N4CCNCC4)c(Cl)c3)n2)sc(=O)n1C` [Compound 44, 5-[2-(3-Chloro-4-piperazin-1-yl-phenylamino)-pyrimidin-4-yl]-3,4-dimethyl-3H-thiazol-2-one], the Ki on CDK1/cyclin B was 86 nM; on CDK9/cyclin T1 it was 3.4 nM; on CDK2/cyclin E, 62 nM; at CDK2/cyclin A, 99 nM; at CDK7/cyclin H, 19 nM; on aurora A it was 38 nM. Besides, the Ki on CDK4/cyclin D1 was 36 nM. Moreover, the IC50 on GSK3β stood at 17.8 nM.

Turning to `Cc1cc(Nc2nccc(-c3sc(=O)n(C)c3C)n2)ccc1Cl` [Compound 15, 5-[2-(4-Chloro-3-methyl-phenylamino)-pyrimidin-4-yl]-3,4-dimethyl-3H-thiazol-2-one], the “anti-HIV activity based on TI (therapeutic index: TC50/IC50)” value with HIV-1 is recorded as “Active”. Besides, the Ki is 600 nM at CDK1/cyclin B; 45 nM on CDK9/cyclin T1; 580 nM at CDK2/cyclin E; 460 nM at CDK2/cyclin A; 9600 nM at CDK4/cyclin D1.

Take `Cc1ccc(Nc2nccc(-c3sc(=O)n(C)c3C)n2)cc1C(F)(F)F` [Compound 21, 3,4-Dimethyl-5-[2-(4-methyl-3-trifluoromethyl-phenylamino)-pyrimidin-4-yl]-3H-thiazol-2-one]: the “anti-HIV activity based on TI (therapeutic index: TC50/IC50)” value in the data set on HIV-1 is “Active”. The Ki is 2300 nM on CDK1/cyclin B; 170 nM on CDK9/cyclin T1; 190 nM on CDK2/cyclin E; 550 nM at CDK2/cyclin A; 220 nM at CDK7/cyclin H.

Regarding `CCn1c(C)c(-c2ccnc(Nc3ccc(F)cc3)n2)sc1=O` [Compound 45, 3-Ethyl-5-[2-(4-fluoro-phenylamino)-pyrimidin-4-yl]-4-methyl-3H-thiazol-2-one], the Ki was 300 nM on CDK1/cyclin B; 11 nM on CDK9/cyclin T1; 24 nM at CDK2/cyclin E; 52 nM at CDK2/cyclin A; 220 nM at CDK7/cyclin H; 43 nM on aurora A. For the same molecule, the Ki on CDK4/cyclin D1 was 5000 nM. Also, the IC50 at GSK3β was determined as 15.2 nM.

With `Cc1c(-c2ccnc(Nc3ccc(S(=O)(=O)NCCO)cc3)n2)sc(=O)n1C` [Compound 72, 4-[4-(3,4-Dimethyl-2-oxo-2,3-dihydro-thiazol-5-yl)-pyrimidin-2-ylamino]-N-(2-hydroxy-ethyl)-benzenesulfonamide], the Ki on CDK1/cyclin B is 5.4 nM; on CDK9/cyclin T1, 11 nM; at CDK2/cyclin E, 0.5 nM; on CDK2/cyclin A, 2.9 nM; at CDK7/cyclin H, 1200 nM; at aurora A it was 510 nM. Moreover, at CDK4/cyclin D1, the Ki was 830 nM. The IC50 at GSK3β turned out to be 8.3 nM.

As to `Cc1c(-c2ccnc(Nc3cccc(CNS(=O)(=O)C(F)(F)F)c3)n2)sc(=O)n1C` [Compound 58, N-{3-[4-(3,4-Dimethyl-2-oxo-2,3-dihydro-thiazol-5-yl)-pyrimidin-2-ylamino]-benzyl}-C,C,C-trifluoro-methanesulfonamide], the Ki was 1100 nM on CDK1/cyclin B; 6.4 nM at CDK9/cyclin T1; 100 nM at CDK2/cyclin E; 600 nM on CDK2/cyclin A; 96 nM at CDK7/cyclin H; 840 nM at aurora A. Besides, the Ki on CDK4/cyclin D1 is 5100 nM. Besides, the IC50 on GSK3β was 23.3 nM.

For the molecule `CC(=O)N1CCN(c2cccc(Nc3nccc(-c4sc(=O)n(C)c4C)n3)c2)CC1` [Compound 49, 5-{2-[3-(4-Acetyl-piperazin-1-yl)-phenylamino]-pyrimidin-4-yl}-3,4-dimethyl-3H-thiazol-2-one], the Ki on CDK1/cyclin B is 930 nM; at CDK9/cyclin T1 it was 30 nM; at CDK2/cyclin E, 1300 nM; on CDK2/cyclin A, 3000 nM; on CDK7/cyclin H it was 1100 nM; at aurora A, 110 nM. In addition, the Ki on CDK4/cyclin D1 was 9.7 nM. The IC50 on GSK3β is 380 nM.

Regarding `Cc1c(-c2ccnc(Nc3ccc(N4CCN(Cc5ccccc5)CC4)cc3)n2)sc(=O)n1C` [Compound 69, 5-{2-[4-(4-Benzyl-piperazin-1-yl)-phenylamino]-pyrimidin-4-yl}-3,4-dimethyl-3H-thiazol-2-one], the Ki is 1700 nM on CDK1/cyclin B; 21 nM on CDK9/cyclin T1; 160 nM at CDK2/cyclin E; 950 nM at CDK2/cyclin A; 12 nM on CDK7/cyclin H; 39 nM on aurora A. Further, the Ki at CDK4/cyclin D1 was 100 nM. For the same molecule, the IC50 at GSK3β came to 96 nM.
